From ChEMBL document CHEMBL1141451, “Crotonkinins A and B and related diterpenoids from Croton tonkinensis as anti-inflammatory and antitumor agents” (J Nat Prod, 2007)
≈ marks a conversion by molar mass, not a printed value.

How the values were obtained:
A549 [1] = assay: Cytotoxicity against human A549 cells; format: functional, cell-based
MCF7 [2] = assay: Cytotoxicity against human MCF7 cells; format: functional, cell-based
KB [3] = assay: Cytotoxicity against human KB cells; format: functional, cell-based
[4] = Cytotoxicity against human KB-VIN cells; format: functional, cell-based; conditions: KBVIN
BV-2 = assay: Inhibition of NADPH oxidase in mouse BV2 cells assessed as NOX-dependent ROS production at 50 uM; format: cell-based
[5] = Inhibition of nitric oxide synthase in mouse BV2 cells assessed as inhibition of LPS-induced NO production; format: cell-based; conditions: BV-2
A549 [6] = assay: Cytotoxicity against human A549 cells at 20 ug/ml; format: functional
MCF7 [7] = assay: Cytotoxicity against human MCF7 cells at 20 ug/ml; format: functional
KB [8] = assay: Cytotoxicity against human KB cells at 20 ug/ml; format: functional
[9] = Cytotoxicity against human KB-VIN cells at 20 ug/ml; format: functional; conditions: KBVIN
[10] = Inhibition of NADPH oxidase in mouse BV2 cells assessed as NOX-dependent ROS production; conditions: BV-2

Compound	EC50 (A549 [1]) [µg/mL]	EC50 (MCF7 [2]) [µg/mL]	EC50 (KB [3]) [µg/mL]	EC50 [4] [µg/mL]	inhibition (BV-2) [%]	IC50 [5] [µM]	inhibition at 20 µg/mL (A549 [6]) [%]	inhibition at 20 µg/mL (MCF7 [7]) [%]	inhibition at 20 µg/mL (KB [8]) [%]	inhibition at 20 µg/mL [9] [%]	IC50 [10] [µM]
C=C1C(=O)[C@@]23CC[C@@H]4[C@@](C)(CO)CCC[C@@]4(C)[C@@H]2CC[C@@H]1C3	6.52 (≈ 21.6 µM)	4.31 (≈ 14.2 µM)	1.47 (≈ 4.86 µM)	1.31 (≈ 4.33 µM)	–	–	–	–	–	–	–
C=C1C(=O)[C@@]23[C@H](O)C[C@@H]4[C@@](C)(COC(C)=O)CCC[C@@]4(C)[C@@H]2CC[C@@H]1[C@H]3O	2.78 (≈ 7.38 µM)	1.98 (≈ 5.26 µM)	0.93 (≈ 2.47 µM)	0.88 (≈ 2.34 µM)	–	–	–	–	–	–	–
C=C1C(=O)[C@@]23[C@H](O)C[C@@H]4C(C)(C)CCC[C@@]4(C)[C@@H]2CC[C@@H]1[C@H]3O	1.45 (≈ 4.55 µM)	0.75 (≈ 2.36 µM)	0.64 (≈ 2.01 µM)	0.63 (≈ 1.98 µM)	29.4	1.2	–	–	–	–	–
CC(=O)OC[C@@]1(C)CCC[C@]2(C)[C@@H]1C[C@H](O)[C@@]13C[C@@H](CC[C@@H]21)[C@H](C)C3=O	–	–	–	–	9.5	42.5	< 50	< 50	< 50	< 50	–
c1ccc2c(c1)[I+]c1ccccc1-2 [DIPHENYLENEIODONIUM]	–	–	–	–	94.3	–	–	–	–	–	16
C=C1C(=O)[C@@]23[C@H](O)C[C@@H]4C(C)(C)CC[C@@H](OC(C)=O)[C@@]4(C)[C@@H]2CC[C@@H]1[C@H]3O	3.03 (≈ 8.05 µM)	0.94 (≈ 2.5 µM)	0.91 (≈ 2.42 µM)	0.78 (≈ 2.07 µM)	29.4	1.3	–	–	–	–	–
COC(=O)[C@@H](N)CCCNC(=N)N[N+](=O)[O-] [L-NAME]	–	–	–	–	–	20.1	–	–	–	–	–
C=C1C(=O)[C@@]23CC[C@@H]4[C@@](C)(COC(C)=O)CCC[C@@]4(C)[C@@H]2CC[C@@H]1C3	6.56 (≈ 19 µM)	6.11 (≈ 17.7 µM)	3.75 (≈ 10.9 µM)	2.84 (≈ 8.24 µM)	–	–	–	–	–	–	–
C=C1C(=O)[C@]23C[C@H]1CC[C@H]2[C@]1(C)CCC[C@](C)(CO)[C@H]1C[C@H]3O	3.96 (≈ 12.4 µM)	0.98 (≈ 3.08 µM)	0.87 (≈ 2.73 µM)	0.82 (≈ 2.57 µM)	20.6	1.4	–	–	–	–	–
C=C1C(=O)[C@@]23CC[C@H]4[C@@](C)(CCC[C@]4(C)C(=O)O)[C@@H]2CC[C@@H]1C3	3.91 (≈ 12.4 µM)	2.69 (≈ 8.5 µM)	1.04 (≈ 3.29 µM)	1.08 (≈ 3.41 µM)	14.2	2.6	–	–	–	–	–
C=C1C[C@]23C(=O)C[C@H]4C(C)(C)CCC[C@]4(C)[C@H]2CC[C@H]1[C@@H]3O [CROTONKININ A]	–	–	–	–	11.2	46.2	< 50	< 50	< 50	< 50	–
C=C1C(=O)[C@]23C[C@H]1CC[C@H]2[C@]1(C)CCCC(C)(C)[C@H]1C[C@H]3O	4.77 (≈ 15.8 µM)	1.47 (≈ 4.86 µM)	0.79 (≈ 2.61 µM)	0.74 (≈ 2.45 µM)	23.1	4	–	–	–	–	–
C=C1C(=O)[C@]23C[C@H]1CC[C@H]2[C@]1(C)CCC[C@](C)(COC(C)=O)[C@H]1C[C@H]3O	1.26 (≈ 3.5 µM)	0.65 (≈ 1.8 µM)	0.71 (≈ 1.97 µM)	0.61 (≈ 1.69 µM)	24.8	1.3	–	–	–	–	–
